Results from the supplement of paper PMC10307832.

Tests used:
Test in all cases: relative viability (nuclei count vs DMSO), 5 days (fraction); higher = more cells survive
LOU-NH91 = test system: LOU-NH91
In short: (§1)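 A single step with final 0.05% Triton X-100, 1% formaldehyde and 1 ug/ml Hoechst fixed the cells and stained nuclei 5 days after treatment. Lung cancer cell lines in 1536-well plates had been treated by pin tool the day after seeding with one drug alone or a fixed anchor-drug dose plus five library-drug doses (not always all listed) in √10 steps, and nuclei were counted on 4× images. Relative viability is the ratio of nuclei in treated wells to nuclei in vehicle wells, taken as the median of duplicate plates.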

NCI-H647 = test system: NCI-H647
In short: as §1

A-427 = test system: A-427
In short: as §1

NCI-H1793 = test system: NCI-H1793
In short: as §1

NCI-H1651 = test system: NCI-H1651
In short: as §1

LXF-289 = test system: LXF-289
In short: as §1

201T = test system: 201T
In short: as §1

COR-L23 = test system: COR-L23
In short: as §1

NCI-H520 = test system: NCI-H520
In short: as §1

NCI-H23 = test system: NCI-H23
In short: as §1

HARA = test system: HARA
In short: as §1

NCI-H522 = test system: NCI-H522
In short: as §1

NCI-H1650 = test system: NCI-H1650
In short: as §1

HCC-78 = test system: HCC-78
In short: as §1

NCI-H838 = test system: NCI-H838
In short: as §1

NCI-H2405 = test system: NCI-H2405
In short: as §1

RERF-LC-KJ = test system: RERF-LC-KJ
In short: as §1

UMC-11 = test system: UMC-11
In short: as §1

LK-2 = test system: LK-2
In short: as §1

PC-3 [JPC-3] = test system: PC-3 [JPC-3]
In short: as §1

LCLC-97TM1 = test system: LCLC-97TM1
In short: as §1

LCLC-103H = test system: LCLC-103H
In short: as §1

NCI-H2347 = test system: NCI-H2347
In short: as §1

Cc1csc(=NC2CCCCC2)n1/N=C/c1ccc(O)c(O)c1O [MIM1] + COc1cccc2cc(-c3nc([C@H]4CC[C@H](C(=O)O)CC4)n4ncnc(N)c34)[nH]c12 [OSI-027] (partner 0.5 µM)
relative viability (LOU-NH91; first compound 0.2 µM): 0.721
relative viability (LOU-NH91; first compound 0.6325 µM): 0.692
relative viability (LOU-NH91; first compound 2 µM): 0.64
relative viability (LOU-NH91; first compound 6.325 µM): 0.694
relative viability (LOU-NH91; first compound 20 µM): 0.635
relative viability (NCI-H647; first compound 0.2 µM): 0.708
relative viability (NCI-H647; first compound 0.6325 µM): 0.658
relative viability (NCI-H647; first compound 6.325 µM): 0.557
relative viability (NCI-H647; first compound 20 µM): 0.43
relative viability (A-427; first compound 0.2 µM): 0.432
relative viability (A-427; first compound 2 µM): 0.48
relative viability (A-427; first compound 6.325 µM): 0.456
relative viability (A-427; first compound 20 µM): 0.191
relative viability (NCI-H1793; first compound 0.2 µM): 0.273
relative viability (NCI-H1793; first compound 2 µM): 0.247
relative viability (NCI-H1793; first compound 6.325 µM): 0.256
relative viability (NCI-H1793; first compound 20 µM): 0.287
relative viability (NCI-H1651; first compound 0.2 µM): 0.745
relative viability (NCI-H1651; first compound 0.6325 µM): 0.806
relative viability (NCI-H1651; first compound 2 µM): 0.63
relative viability (NCI-H1651; first compound 6.325 µM): 0.611
relative viability (NCI-H1651; first compound 20 µM): 0.612
relative viability (LXF-289; first compound 0.2 µM): 0.782
relative viability (LXF-289; first compound 0.6325 µM): 0.586
relative viability (LXF-289; first compound 2 µM): 0.806
relative viability (LXF-289; first compound 6.325 µM): 0.686
relative viability (LXF-289; first compound 20 µM): 0.441
relative viability (201T; first compound 0.2 µM): 0.739
relative viability (201T; first compound 0.6325 µM): 0.834
relative viability (201T; first compound 2 µM): 0.745
relative viability (201T; first compound 6.325 µM): 0.478
relative viability (201T; first compound 20 µM): 0.272
relative viability (COR-L23; first compound 0.2 µM): 0.843
relative viability (COR-L23; first compound 0.6325 µM): 0.955
relative viability (COR-L23; first compound 2 µM): 0.654
relative viability (COR-L23; first compound 6.325 µM): 0.603
relative viability (COR-L23; first compound 20 µM): 0.382
relative viability (NCI-H520; first compound 0.2 µM): 0.245
relative viability (NCI-H520; first compound 0.6325 µM): 0.22
relative viability (NCI-H520; first compound 2 µM): 0.249
relative viability (NCI-H520; first compound 6.325 µM): 0.24
relative viability (NCI-H520; first compound 20 µM): 0.25
relative viability (NCI-H23; first compound 0.2 µM): 0.53
relative viability (NCI-H23; first compound 2 µM): 0.563
relative viability (NCI-H23; first compound 6.325 µM): 0.306
relative viability (NCI-H23; first compound 20 µM): 0.156
relative viability (HARA; first compound 0.2 µM): 0.503
relative viability (HARA; first compound 2 µM): 0.547
relative viability (HARA; first compound 6.325 µM): 0.166
relative viability (HARA; first compound 20 µM): 0.0624
relative viability (NCI-H522; first compound 0.2 µM): 0.761
relative viability (NCI-H522; first compound 0.6325 µM): 0.578
relative viability (NCI-H522; first compound 2 µM): 0.717
relative viability (NCI-H522; first compound 6.325 µM): 0.696
relative viability (NCI-H522; first compound 20 µM): 0.67
relative viability (NCI-H1650; first compound 0.2 µM): 0.653
relative viability (NCI-H1650; first compound 0.6325 µM): 0.668
relative viability (NCI-H1650; first compound 2 µM): 0.447
relative viability (NCI-H1650; first compound 6.325 µM): 0.164
relative viability (NCI-H1650; first compound 20 µM): 0.147
relative viability (HCC-78; first compound 0.2 µM): 0.365
relative viability (HCC-78; first compound 0.6325 µM): 0.356
relative viability (HCC-78; first compound 2 µM): 0.303
relative viability (HCC-78; first compound 6.325 µM): 0.384
relative viability (HCC-78; first compound 20 µM): 0.468
relative viability (NCI-H838; first compound 0.2 µM): 0.469
relative viability (NCI-H838; first compound 0.6325 µM): 0.428
relative viability (NCI-H838; first compound 2 µM): 0.397
relative viability (NCI-H838; first compound 6.325 µM): 0.373
relative viability (NCI-H838; first compound 20 µM): 0.169
relative viability (NCI-H2405; first compound 0.2 µM): 0.638
relative viability (NCI-H2405; first compound 0.6325 µM): 0.666
relative viability (NCI-H2405; first compound 2 µM): 0.637
relative viability (NCI-H2405; first compound 6.325 µM): 0.553
relative viability (NCI-H2405; first compound 20 µM): 0.434
relative viability (RERF-LC-KJ; first compound 0.2 µM): 0.555
relative viability (RERF-LC-KJ; first compound 0.6325 µM): 0.629
relative viability (RERF-LC-KJ; first compound 2 µM): 0.403
relative viability (RERF-LC-KJ; first compound 6.325 µM): 0.313
relative viability (RERF-LC-KJ; first compound 20 µM): 0.195
relative viability (UMC-11; first compound 0.2 µM): 0.504
relative viability (UMC-11; first compound 2 µM): 0.579
relative viability (UMC-11; first compound 6.325 µM): 0.397
relative viability (UMC-11; first compound 20 µM): 0.264
relative viability (LK-2; first compound 0.2 µM): 0.247
relative viability (LK-2; first compound 0.6325 µM): 0.201
relative viability (LK-2; first compound 2 µM): 0.181
relative viability (LK-2; first compound 6.325 µM): 0.169
relative viability (LK-2; first compound 20 µM): 0.184
relative viability (PC-3 [JPC-3]; first compound 0.2 µM): 0.749
relative viability (PC-3 [JPC-3]; first compound 0.6325 µM): 0.733
relative viability (PC-3 [JPC-3]; first compound 2 µM): 0.647
relative viability (PC-3 [JPC-3]; first compound 6.325 µM): 0.657
relative viability (PC-3 [JPC-3]; first compound 20 µM): 0.545
relative viability (LCLC-97TM1; first compound 0.2 µM): 0.437
relative viability (LCLC-97TM1; first compound 0.6325 µM): 0.455
relative viability (LCLC-97TM1; first compound 2 µM): 0.508
relative viability (LCLC-97TM1; first compound 6.325 µM): 0.503
relative viability (LCLC-97TM1; first compound 20 µM): 0.193
relative viability (LCLC-103H; first compound 0.2 µM): 0.467
relative viability (LCLC-103H; first compound 0.6325 µM): 0.422
relative viability (LCLC-103H; first compound 2 µM): 0.468
relative viability (LCLC-103H; first compound 6.325 µM): 0.435
relative viability (LCLC-103H; first compound 20 µM): 0.304
relative viability (NCI-H2347; first compound 0.2 µM): 0.41
relative viability (NCI-H2347; first compound 0.6325 µM): 0.449
relative viability (NCI-H2347; first compound 2 µM): 0.437
relative viability (NCI-H2347; first compound 6.325 µM): 0.392
relative viability (NCI-H2347; first compound 20 µM): 0.287
